What was measured:
Type in all cases: in vivo, mouse
[1] = tested on: STAT3 phosphorylation in hypothalami; test: Western blotting of STAT3 phosphorylation in hypothalami 30 min after leptin injection (Example 2); conditions: Group 4 (high-fat diet+flurbiprofen) vs Group 2; approximately 10 mg/kg per day orally, 8 weeks; 30 minutes after leptin 1 mg/kg via tail vein; significance level <1%
Protocol: 4 weeks-old male mice (C57BL/6 Cr Slc) had been given normal diet (10 kcal % fat, D12450B, produced by Research Diets, Inc.) or high-fat diet (60 kcal % fat, D12492, produced by Research Diets, Inc.). Flurbiprofen was diluted with drinking water so that the administration amount of flurbiprofen would be approximately 10 mg/kg per day, and was orally administered to the mice in the form of drinking water.
Specifically, mice were divided into four groups each consisting of 7-8 mice. Mice of individual groups were given diets as follows. • Group 1: Normal diet (10 kcal % fat) only • Group 2: High-fat diet (60 kcal % fat) only • Group 3: Normal diet+flurbiprofen • Group 4: High-fat diet+flurbiprofen
A solution prepared by solving mouse-derived leptin (450-31, produced by PeproTech Inc. or 498-OB, rmLeptin, produced by R&D systems) in physiological saline was non-orally administered via tail vein to the mice, which had been given high-fat diet or normal diet for 8 weeks. The non-oral administration was done in such a manner that the administration amount of leptin would be 1 mg/kg. As a control for leptin administration, physiological saline in equal amount was administered to the mice via tail vein.
FIGS. 4 and 5 show the result of Western blotting of STAT3 phosphorylation in hypothalami of mice 30 minutes after leptin injection. […]

plasma leptin levels = test: Plasma leptin levels by ELISA before and after fasting (Example 3); conditions: Group 4 (high-fat diet+flurbiprofen) vs Group 2, approximately 10 mg/kg per day orally, 8 weeks
Protocol: 4 weeks-old male mice (C57BL/6 Cr Slc) had been given normal diet (10 kcal % fat, D12450B, produced by Research Diets, Inc.) or high-fat diet (60 kcal % fat, D12492, produced by Research Diets, Inc.). Flurbiprofen was diluted with drinking water so that the administration amount of flurbiprofen would be approximately 10 mg/kg per day, and was orally administered to the mice in the form of drinking water. Specifically, mice were divided into four groups each consisting of 7-8 mice. Mice of individual groups were given diets as follows. • Group 1: Normal diet (10 kcal % fat) only • Group 2: High-fat diet (60 kcal % fat) only • Group 3: Normal diet+flurbiprofen • Group 4: High-fat diet+flurbiprofen 20-25 μL of blood samples before or after fasting for 28-29.5 hours were obtained from mice via tail vein, which had been given high-fat diet or normal diet for 8 weeks. […] Plasma leptin levels in the supernatants obtained by the centrifugation were measured by ELISA. […] Values in the graph of (a) of FIG. 6 are averages of plasma leptin levels of mice of each group measured before fasting (± their standard deviations) (n=7-8 with respect to each group). Similarly, values in the graph of (b) of FIG. 6 are averages of plasma leptin levels of mice of each group measured after fasting (± their standard deviations) (n=7-8 with respect to each group). […]

mice = test: Open Field Test, amounts of mice activity (Example 6); conditions: Group 3 or 4 (flurbiprofen) vs Group 1 or 2 (no flurbiprofen); 10 mg/kg per day orally, 8 weeks
Protocol: In order to measure the amounts of mice activity, an Open Field Test was carried out. Specifically, 4 weeks-old male mice (C57BL/6 Cr Slc) were divided into four groups each consisting of 15-16 mice. Mice of individual groups were given diets as follows for 8 weeks similarly with Example 5. • Group 1: Normal diet (10 kcal % fat) only • Group 2: High-fat diet (60 kcal % fat) only • Group 3: Normal diet+flurbiprofen • Group 4: High-fat diet+flurbiprofen
Flurbiprofen (F8514, produced by SIGMA) was diluted with drinking water so that the administration amount of flurbiprofen would be 10 mg/kg per day, and was orally administered to the mice in the form of drinking water.
The mice raised for 8 weeks with high-fat diet or normal diet were subjected to the Open Field Test.
The Open Field Test is a test in which mice were put at the center of a square field (48×48 cm) and the amounts of activity of the mice in the new environment were measured in numerals. Specifically, with respect to each of the mice, the amount of activity per 5 minutes was measured using a locomotor activity measuring device (SCANET MV-10MT, produced by Toyo Sangyo Co., Ltd.). The measurements were performed between 16:30 and 17:30 which was a time before feeding behavior of the mice would become active. […]

[2] = tested on: circulating leptin levels; test: Circulating leptin levels of leptin-resistant mice (Example 9); conditions: 3 weeks after flurbiprofen administration, 3 mg/kg per day orally; control 106.51±3.7122; P<0.05
Protocol: Similarly with Example 8, 4 weeks-old male mice (C57BL/6 Cr Slc) had been given high-fat diet for 6 months so that leptin resistance would be induced in the mice. Thereafter, the mice were divided into two groups (each consisting of 8 mice), and the mice of individual groups were given the following diets for 3 weeks. • Control group (Cont): normal diet (10 kcal % fat) only • Flurbiprofen-administered group (Ful): normal diet+flurbiprofen Flurbiprofen (F8514, produced by SIGMA) was diluted with drinking water so that the administration amount of flurbiprofen would be 3 mg/kg per day, and was orally administered to the mice in the form of drinking water. […] FIG. 15 is a graph showing circulating leptin levels (ng/ml) of the mice of the control group and the mice of the flurbiprofen-administered group which had been given normal diet for 3 weeks. Values in the graph of FIG. 15 are averages of circulating leptin levels (ng/ml) of mice of each group (± their standard deviations) (n=8 with respect to each group). Further, statistic analysis was carried out using t-test.

C[C@@H](C(=O)O)c1ccc(-c2ccccc2)c(F)c1 [flurbiprofen]
intensity of STAT3 phosphorylation in hypothalami [1]: significantly higher
plasma leptin levels (plasma leptin levels): significantly lower plasma leptin levels
amounts of activity (locomotor activity, counts/5 min) (mice): no significant difference in the amounts of activity
circulating leptin level [2]: 87.105 ± 5.4415 ng/mL
